Test results: patent publication US20130131059A1, “METHOD FOR TREATING OPHTHALMIC DISEASES USING KINASE INHIBITOR COMPOUNDS IN PRODRUG FORMS” (INSPIRE PHARMACEUTICALS, INC., priority 2010, published 2013)
Read-outs that look alike come from different tables or passages of the source.

How the values were obtained:
[1] = molecular target: T1, ROCK2 (Homo sapiens, UniProt O75116); assay: Rho kinase inhibition assay (IMAP fluorescence polarization), ROCK2; assay type: biochemical; details: 10 μM ATP, 60 min at room temperature
T1 construct: purchased Upstate/Chemicon 14-451
Protocol: (Molecular Devices product number R7184) was pre-incubated with a test compound for 5 minutes in buffer containing 10 mM Tris-HCl pH 7.2, 10 mM MgCl2, and 0.1% BSA. Following the pre-incubation, 10 μM ATP was added to initiate the reaction. After 60 minutes at room temperature, Molecular Devices IMAP™ binding solution was added to bind phosphorylated substrate. After 30 minutes of incubation in the presence of the IMAP™ beads, the fluorescence polarization was read and the ratio was reported as mP.
See Tian et al., Arch. Ophthalmol. […] Ophthalmol. Vis. […] Ophthalmol. […] Cytoskel. […] Ophthalmol. Vis. […] Ophthalmol. Vis.

[2] = molecular target: T2, ROCK1 (Homo sapiens, UniProt Q13464); assay: Rho kinase inhibition assay (IMAP fluorescence polarization), ROCK1; assay type: biochemical
T2 construct: purchased Upstate/Chemicon 14-601
Protocol: Following the pre-incubation, 10 μM ATP was added to initiate the reaction. After 60 minutes at room temperature, Molecular Devices IMAP™ binding solution was added to bind phosphorylated substrate. After 30 minutes of incubation in the presence of the IMAP™ beads, the fluorescence polarization was read and the ratio was reported as mP.

[3] = Ocular surface and aqueous humor bioavailability; assay type: in vivo, New Zealand White rabbits; details: New Zealand White, rabbit, topical, 30 μl of 1 mM (0.04% w/v) per eye
Protocol: Dose Formulation and Administration. Compounds 14 (prodrug) and 49 (base compound) were formulated at 0.04% w/v (the equivalent millimolar concentration is 1 mM) in 10 mM phosphate, 0.8% polysorbate 80, 0.85% NaCl, 0.01% BAC, 0.1% EDTA at pH 7.3. Each compound was administered as a 30 μl drop to both eyes of each animal within a dosing group and the ocular and systemic exposure was examined as described in Example 49.
Study sampling. 40 μL of saline was applied to the eyes at 0.083, 1, 2, and 4 hours after administration of each compound and the lavage fluids were collected as samples. Aqueous humor and ocular surface samples were obtained from 2 animals (4 eyes) per dosing group at 0.083, 1, 2, and 4 hours post dosing, by the methods described in Example 49. Ocular surface relates to the surface of the cornea and conjunctiva. Ocular surface residence time is the average time that a compound resides on the ocular surface.

[4] = 10 μM ATP, 60 min at room temperature, read-out: ROCK1 IC50
[5] = ocular surface (saline lavage fluid)

T2 sequence (Q13464 whole entry): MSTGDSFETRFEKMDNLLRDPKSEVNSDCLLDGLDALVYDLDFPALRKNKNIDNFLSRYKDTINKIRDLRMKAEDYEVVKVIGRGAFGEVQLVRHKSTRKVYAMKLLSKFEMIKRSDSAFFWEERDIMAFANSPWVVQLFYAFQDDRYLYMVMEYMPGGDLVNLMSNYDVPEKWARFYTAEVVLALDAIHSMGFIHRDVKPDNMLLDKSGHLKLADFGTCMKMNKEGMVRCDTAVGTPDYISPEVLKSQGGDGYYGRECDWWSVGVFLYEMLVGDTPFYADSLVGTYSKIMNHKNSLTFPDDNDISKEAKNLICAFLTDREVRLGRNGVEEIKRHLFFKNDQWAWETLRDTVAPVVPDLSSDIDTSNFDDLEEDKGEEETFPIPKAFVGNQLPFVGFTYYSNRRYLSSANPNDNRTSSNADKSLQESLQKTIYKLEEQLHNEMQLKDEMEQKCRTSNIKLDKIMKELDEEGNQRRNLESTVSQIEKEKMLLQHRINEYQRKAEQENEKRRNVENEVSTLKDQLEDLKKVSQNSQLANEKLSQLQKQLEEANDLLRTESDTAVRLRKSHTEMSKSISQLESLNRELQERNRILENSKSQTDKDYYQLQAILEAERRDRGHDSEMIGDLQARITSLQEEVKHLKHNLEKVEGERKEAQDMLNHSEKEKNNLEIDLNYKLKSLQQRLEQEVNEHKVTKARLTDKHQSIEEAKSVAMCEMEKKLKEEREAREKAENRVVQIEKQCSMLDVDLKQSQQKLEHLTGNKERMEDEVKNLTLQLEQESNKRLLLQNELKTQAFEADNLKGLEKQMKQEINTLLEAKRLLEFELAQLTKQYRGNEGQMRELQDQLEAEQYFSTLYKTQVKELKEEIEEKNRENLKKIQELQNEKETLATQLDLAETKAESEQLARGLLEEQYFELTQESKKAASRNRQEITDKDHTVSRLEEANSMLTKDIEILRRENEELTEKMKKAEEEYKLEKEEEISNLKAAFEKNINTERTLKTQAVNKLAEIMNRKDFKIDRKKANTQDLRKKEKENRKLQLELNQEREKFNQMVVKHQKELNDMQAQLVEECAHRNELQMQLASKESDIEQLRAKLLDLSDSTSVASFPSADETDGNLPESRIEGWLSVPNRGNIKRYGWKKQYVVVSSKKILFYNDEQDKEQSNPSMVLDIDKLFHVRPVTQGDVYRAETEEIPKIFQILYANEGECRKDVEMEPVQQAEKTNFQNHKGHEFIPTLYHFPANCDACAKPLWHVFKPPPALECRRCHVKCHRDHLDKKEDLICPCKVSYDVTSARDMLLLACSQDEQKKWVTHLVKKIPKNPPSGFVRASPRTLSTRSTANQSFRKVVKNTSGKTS
T1 sequence (O75116 whole entry): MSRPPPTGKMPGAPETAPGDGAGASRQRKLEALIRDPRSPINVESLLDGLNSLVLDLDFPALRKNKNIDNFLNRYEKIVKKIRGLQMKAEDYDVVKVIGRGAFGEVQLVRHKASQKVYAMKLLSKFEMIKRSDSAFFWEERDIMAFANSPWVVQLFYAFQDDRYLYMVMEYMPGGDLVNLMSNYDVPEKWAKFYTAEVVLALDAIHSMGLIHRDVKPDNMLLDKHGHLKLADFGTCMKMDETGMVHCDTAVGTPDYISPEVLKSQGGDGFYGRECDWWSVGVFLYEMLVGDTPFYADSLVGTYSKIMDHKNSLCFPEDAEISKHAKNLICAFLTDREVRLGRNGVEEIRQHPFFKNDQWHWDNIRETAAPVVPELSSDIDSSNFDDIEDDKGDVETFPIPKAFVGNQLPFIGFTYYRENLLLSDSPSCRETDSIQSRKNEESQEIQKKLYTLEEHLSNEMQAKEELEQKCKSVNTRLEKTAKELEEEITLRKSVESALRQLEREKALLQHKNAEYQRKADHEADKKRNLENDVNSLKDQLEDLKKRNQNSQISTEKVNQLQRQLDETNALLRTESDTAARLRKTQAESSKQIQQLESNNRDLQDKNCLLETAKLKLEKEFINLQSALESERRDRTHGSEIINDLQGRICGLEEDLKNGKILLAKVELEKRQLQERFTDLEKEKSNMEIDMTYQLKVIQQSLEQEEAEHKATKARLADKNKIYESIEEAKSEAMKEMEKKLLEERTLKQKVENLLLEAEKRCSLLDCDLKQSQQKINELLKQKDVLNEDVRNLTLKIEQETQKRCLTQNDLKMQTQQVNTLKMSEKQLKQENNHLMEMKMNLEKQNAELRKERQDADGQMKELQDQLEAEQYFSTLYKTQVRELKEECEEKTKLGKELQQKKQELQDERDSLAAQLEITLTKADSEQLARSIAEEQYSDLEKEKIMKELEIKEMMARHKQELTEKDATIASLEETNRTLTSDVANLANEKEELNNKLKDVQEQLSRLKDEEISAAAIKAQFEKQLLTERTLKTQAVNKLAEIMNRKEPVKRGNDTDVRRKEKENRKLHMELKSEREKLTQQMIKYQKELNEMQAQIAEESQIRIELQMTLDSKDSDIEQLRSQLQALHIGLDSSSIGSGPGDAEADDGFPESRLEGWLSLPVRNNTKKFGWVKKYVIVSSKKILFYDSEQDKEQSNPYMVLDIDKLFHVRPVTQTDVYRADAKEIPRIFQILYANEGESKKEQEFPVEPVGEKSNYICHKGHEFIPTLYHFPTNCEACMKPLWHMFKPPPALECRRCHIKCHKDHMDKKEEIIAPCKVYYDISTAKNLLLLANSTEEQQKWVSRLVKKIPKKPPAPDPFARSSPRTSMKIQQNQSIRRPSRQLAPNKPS

Compound | IC50 [1] [nM] | IC50 [2] [nM] | IC50 [2, 4] [nM] | other results
O=C(OCCOc1cccc(CN2CCC[C@@H](Nc3ccc4[nH]ncc4c3)C2)c1)c1ccccc1 [Compound 32, 2-(3-((R)-3-(1H-indazol-5-ylamino)piperidin-1-yl)methyl)phenoxy)ethyl benzoate] | 3020 | 7080 |  | 
tert-Butyl (4-(((S)-3-(1H-indazol-5-ylamino)piperidin-1-yl)methyl)phenyl) methylcarbamate [Compound 43] | 4000 |  | 25400 | 
O=C(OCCOc1cccc(CN2CCC[C@H](Nc3ccc4[nH]ncc4c3)C2)c1)c1ccccc1 [Compound 31, 2-(3-(((S)-3-(1H-indazol-5-ylamino)piperidin-1-yl)methyl)phenoxy)ethyl benzoate] | 1230 | 5650 |  | 
CC(=O)Nc1ccc(CN2CCC(Nc3cccc4cnccc34)C2)cc1 (stereo not drawn) [Compound 25, N-(4-((3-(isoquinolin-5-ylamino)pyrrolidin-1-yl)methyl)phenyl)acetamide] | 2300 |  |  | 
CC(=O)NCCOc1cccc(CN2CCC[C@@H](Nc3ccc4[nH]ncc4c3)C2)c1 [Compound 29, N-(2-(3-(((R)-3-(1H-indazol-5-ylamino)piperidin-1-yl)methyl)phenoxy)ethyl) acetamide] | 987 | 5160 |  | 
CC1(C(=O)OCCOc2cccc(CN3CC[C@@H](Nc4cccc5cnccc45)C3)c2)CC1 [Compound 19, 2-(3-(((R)-3-(isoquinolin-5-ylamino)pyrrolidin-1-yl)methyl)phenoxy)ethyl 1-methylcyclopropanecarboxylate] | 1050 |  | 3060 | 
Cc1ccc(CN2CCC[C@@H](Nc3ccc4[nH]ncc4c3)C2)cc1OCCOC(=O)c1ccccc1 [Compound 26, 2-(5-(((R)-3-(1H-indazol-5-ylamino)piperidin-1-yl)methyl)-2-methylphenoxy)ethyl benzoate] | 621 |  | 6060 | 
CCOC(=O)c1ccc(CN2CCC[C@H](Nc3ccc4[nH]ncc4c3)C2)cc1 [Compound 45, Ethyl 4-(((S)-3-(1H-indazol-5-ylamino)piperidin-1-yl)methyl)benzoate] | 6180 | 45500 |  | 
CC(C)(C)C(=O)OCCOc1cccc(CN2CC[C@@H](Nc3cccc4cnccc34)C2)c1 [Compound 20, 2-(3-(((R)-3-(isoquinolin-5-ylamino)pyrrolidin-1-yl)methyl)phenoxy)ethyl pivalate] | 1770 |  | 4810 | 
Cc1ccc(CN2CC[C@@H](Nc3cccc4cnccc34)C2)cc1OCCO [Compound 49, [2-(5-(((R)-3-(isoquinolin-5-ylamino)pyrrolidin-1-yl)methyl)-2-methylphenoxy)]ethanol] |  | 4.1 |  | concentration at 1 h ([3]; aqueous humor): 93.9 nM; concentration at 2 h ([3]; aqueous humor): 24 nM; concentration at 4 h ([3]; aqueous humor): 3.4 nM; concentration at 1 h [3, 5]: 846 nM; concentration at 2 h [3, 5]: 893 nM; concentration at 4 h [3, 5]: 65.7 nM
CCOC(=O)c1ccc(CN2CCC[C@@H](Nc3ccc4[nH]ncc4c3)C2)cc1 [Compound 44, Ethyl 4-(((R)-3-(1H-indazol-5-ylamino)piperidin-1-yl)methyl)benzoate] | 6190 | 117000 |  | 
CC(C)CC(=O)OCCOc1cccc(CN2CC[C@@H](Nc3cccc4cnccc34)C2)c1 [Compound 18, 2-(3-((((R)-3-(isoquinolin-5-ylamino)pyrrolidin-1-yl)methyl)phenoxy)ethyl 3-methylbutanoate)] | 1490 |  | 3820 | 
O=C(OCCOc1cccc(CN2CC[C@@H](Nc3cccc4cnccc34)C2)c1)c1cccnc1 [Compound 21, 2-(3-(((R)-3-(isoquinolin-5-ylamino)pyrrolidin-1-yl)methyl)phenoxy)ethyl nicotinate] | 512 |  | 1910 | 
tent-Butyl (3-((3-(1H-indazol-5-ylamino)piperidin-1-yl)methyl)phenyl)methyl carbamate [Compound 40] | 6590 |  |  | 

Now from value to compound, other results behind:

IC50 [1] [nM] | IC50 [2] [nM] | IC50 [2, 4] [nM] | Compound | other results
87 |  |  | CCOC(=O)COc1cccc(CN2CCCC(Nc3ccc4[nH]ncc4c3)C2)c1 (stereo not drawn) [Compound 41, Ethyl 2-(3-((3-(1H-indazol-5-ylamino)piperidin-1-yl)methyl)phenoxy)acetate] | 
155 | 1010 |  | O=C(COc1cccc(CN2CCC[C@@H](Nc3ccc4[nH]ncc4c3)C2)c1)Nc1cccnc1 [Compound 33, 2-(3-(((R)-3-(1H-indazol-5-ylamino)piperidin-1-yl)methyl)phenoxy)-N-(pyridin-3-yl)acetamide] | 
109 | 1030 |  | CCOC(=O)COc1cccc(CN2CCC[C@H](Nc3ccc4[nH]ncc4c3)C2)c1 [Compound 28] | 
102 | 1280 |  | O=C(COc1cccc(CN2CCC[C@@H](Nc3ccc4[nH]ncc4c3)C2)c1)N1CCOCC1 [Compound 34, 2-(3-(((R)-3-(1H-indazol-5-ylamino)piperidin-1-yl)methyl)phenoxy)-1-morpholinoethanone] | 
341 | 2420 |  | CC(=O)NCc1cccc(CN2CCC[C@@H](Nc3ccc4[nH]ncc4c3)C2)c1 [Compound 42, N-((3-(((R)-3-(1H-indazol-5-ylamino)piperidin-1-yl)methyl)phenyl)methyl) acetamide] | 
451 | 5390 |  | CC(=O)NCCOc1cccc(CN2CCC[C@H](Nc3ccc4[nH]ncc4c3)C2)c1 [Compound 30, N-(2-(3-(((S)-3-(1H-indazol-5-ylamino)piperidin-1-yl)methyl)phenoxy)ethyl) acetamide] | 
369 |  | 1220 | CCOC(=O)OCCOc1cccc(CN2CC[C@@H](Nc3cccc4cnccc34)C2)c1 [Compound 17, 2-(3-(((R)-3-(isoquinolin-5-ylamino)pyrrolidin-1-yl)methyl)phenoxy)ethyl ethyl carbonate] | 
6.7 | 19 |  | OCCOc1cccc(CN2CC[C@@H](Nc3cccc4cnccc34)C2)c1 [Compound 48, 2-(3-(((R)-3-(isoquinolin-5-ylamino)pyrrolidin-1-yl)methyl)phenoxy)ethanol] | 
251 | 3440 |  | CC(C)(C)OC(=O)COc1cccc(CN2CCC[C@H](Nc3ccc4[nH]ncc4c3)C2)c1 [Compound 27, tert-Butyl 2-(3-(((S)-3-(1H-indazol-5-ylamino)piperidin-1-yl)methyl)phenoxy) acetate] | 
